Assay results: patent US20220168431A1, “METHODS OF TREATING CANCER USING TRIMETAZIDINE-BASED COMPOUNDS” (IMBRIA PHARMACEUTICALS, INC., priority 2019, published 2022)
Several values for one entry are separate records, joined by “and”; a condition that tells them apart may be missing. Equal entries are not always repeated.

Tests used:
[1] = Stability of CV-8972 in aqueous solution at different concentrations and pH; assay type: physicochemical
Procedure: The stability of CV-8972 was analyzed. Aqueous samples containing CV-8972 at different concentrations and pH were incubated for various periods and analyzed.
Form A of CV-8972 were analyzed for stability in aqueous solution. Aqueous samples containing CV-8972 at different concentrations and pH were incubated for various periods and analyzed.

[2] = system: isolated hearts after ischemia-reperfusion; experiment: Ischemia-reperfusion (IR) method, coronary flow; assay type: in vivo, mice
Procedure: FIG. 38 is a schematic of the ischemia-reperfusion (IR) method used to analyze the effects of compositions of the invention on coronary flow, cardiac function, and infarct size. […] At 20 minutes, ischemia was induced, and coronary flow was analyzed. At 50 minutes, reperfusion was initiated to restore blood flow. At 170 minutes, coronary flow and cardiac function was analyzed, and then the hearts were preserved, sectioned, and infarct size was measured by triphenyltetrazolium chloride (TTC) staining. FIG. 39 is a graph of coronary flow of after IR.

[3] = system: isolated hearts after ischemia-reperfusion; experiment: Ischemia-reperfusion (IR) method, cardiac function (LVDP); assay type: in vivo, mice
Procedure: FIG. 38 is a schematic of the ischemia-reperfusion (IR) method used to analyze the effects of compositions of the invention on coronary flow, cardiac function, and infarct size. […] At 20 minutes, ischemia was induced, and coronary flow was analyzed. At 50 minutes, reperfusion was initiated to restore blood flow. At 170 minutes, coronary flow and cardiac function was analyzed, and then the hearts were preserved, sectioned, and infarct size was measured by triphenyltetrazolium chloride (TTC) staining. FIG. 40 is graph of left ventricular developed pressure (LVDP) after IR. Blue bars indicate LVDP at 20 minutes, and orange bars indicate LVDP at 170 minutes.

[4] = system: isolated hearts after ischemia-reperfusion; experiment: Ischemia-reperfusion (IR) method, infarct size by TTC staining; assay type: in vivo, mice; settings: result in words
Procedure: FIG. 38 is a schematic of the ischemia-reperfusion (IR) method used to analyze the effects of compositions of the invention on coronary flow, cardiac function, and infarct size. […] At 20 minutes, ischemia was induced, and coronary flow was analyzed. At 50 minutes, reperfusion was initiated to restore blood flow. At 170 minutes, coronary flow and cardiac function was analyzed, and then the hearts were preserved, sectioned, and infarct size was measured by triphenyltetrazolium chloride (TTC) staining. […] FIG. 42 is graph of infarct size after TR.

[5] = Stability of CV-8972 forms in various solvents, X-ray powder diffraction; assay type: physicochemical; settings: batch 289-MBA-15-A (form B)
Procedure: The stability of CV-8972 was analyzed.
Samples from batch 289-MBA-15-A (containing form B) were added to various solvents, incubated under various conditions, and analyzed by X-ray powder diffraction.
Samples from batch 289-MBA-16 (containing forms A and B) were added to various solvents, incubated under various conditions, and analyzed by X-ray powder diffraction.
Samples from batch S-18-0030513 (containing form A) were added to various solvents, incubated under various conditions, and analyzed by X-ray powder diffraction.

Compound: COc1ccc(CN2CCN(CCOC(=O)c3cccnc3)CC2)c(OC)c1OC.Cl.Cl.Cl [276-MBA-172]
- Retention Time 5.6 (CV-8972 peak) ([1]; 2 mg/mL pH 6 (Form A), 1 hrs, measured pH 6.1): 97.22
- Retention Time 5.6 (CV-8972 peak) ([1]; 2 mg/mL pH 6 (Form A), 4 hrs, measured pH 6.1): 97.01
- Retention Time 5.6 (CV-8972 peak) ([1]; 2 mg/mL pH 6 (Form A), 6 hrs, measured pH 6.1): 96.51
- Retention Time 5.6 (CV-8972 peak) ([1]; 2 mg/mL pH 7 (Form A), 1 hrs, measured pH 6.8): 95.06
- Retention Time 5.6 (CV-8972 peak) ([1]; 2 mg/mL pH 7 (Form A), 4 hrs, measured pH 6.7): 93.7
- Retention Time 5.6 (CV-8972 peak) ([1]; 2 mg/mL pH 7 (Form A), 6 hrs, measured pH 6.7): 92.12
- Retention Time 5.6 (CV-8972 peak) ([1]; 2 mg/mL pH 7 (Form A), 22 hrs, measured pH 6.8): 91.07
- Retention Time 5.6 (CV-8972 peak) ([1]; 10 mg/mL pH 6 (Form A), 1 hrs, measured pH 6.8): 93.43
- Retention Time 5.6 (CV-8972 peak) ([1]; 10 mg/mL pH 6 (Form A), 4 hrs, measured pH 6.8): 91.82
- Retention Time 5.6 (CV-8972 peak) ([1]; 10 mg/mL pH 6 (Form A), 6 hrs, measured pH 6.7): 91.8
- Retention Time 5.6 (CV-8972 peak) ([1]; 10 mg/mL pH 6 (Form A), 22 hrs, measured pH 6.7): 89.66
- Retention Time 5.6 (CV-8972 peak) ([1]; 10 mg/mL pH 7 (Form A), 1 hrs, measured pH 7.2): 89.05
- Retention Time 5.6 (CV-8972 peak) ([1]; 10 mg/mL pH 7 (Form A), 4 hrs, measured pH 7.1): 86.8
- Retention Time 5.6 (CV-8972 peak) ([1]; 10 mg/mL pH 7 (Form A), 6 hrs, measured pH 7.1): 84.79

Compound: COc1ccc(CN2CCNCC2)c(OC)c1OC [TMZ, trimetazidine]
- CF170/CF20 ([2]; group MEAN, ratio 170 minutes to 20 minutes): 4.02E+01 ul/m1
- CF170/CF20 ([2]; ratio of flow at 170 minutes to flow at 20 minutes, individual hearts, TMZ 20 μM, TNF 2 μM each, TNS 20 μM each): 2.42E+01 ul/m1 and 5.87E+01 ul/m1 and 3.57E+01 ul/m1 and 3.37E+01 ul/m1 and 5.21E+01 ul/m1 and 2.73E+01 ul/m1 and 2.60E+01 ul/m1 and 6.39E+01 ul/m1
- LVDP × HR ([3]; after 2h reperfusion, group MEAN): 6.82E+03
- LVDP × HR ([3]; after 2h reperfusion, individual hearts): 2.52E+03 and 5.15E+03 and 5.28E+03 and 4.49E+03 and 3.24E+03 and 4.31E+03 and 9.11E+03 and 1.30E+04 and 6.44E+03 and 1.77E+04
- LVDP × HR ([3]; pre-ischemia, group MEAN): 1.68E+04
- LVDP × HR ([3]; pre-ischemia, individual hearts): 1.83E+04 and 2.31E+04 and 1.08E+04 and 1.77E+04 and 2.33E+04 and 1.26E+04 and 9.82E+03 and 1.01E+04 and 1.57E+04 and 2.36E+04
- cardiac function after IR ([3]; result in words): prevented a decline in cardiac function
- infarct size after IR [4]: decreased infarct size

Compound: COc1ccc(CN2CCN(CCOC(=O)c3cccnc3)CC2)c(OC)c1OC [CV-8972, 2-(4-(2,3,4-trimethoxybenzyl)piperazin-1-yl)ethyl nicotinate]
- XRPD results ([5]; EtOH, CC from 60° C.): Form C + minor
- XRPD results ([5]; no solvent, 100° C., 20 minutes): Form B, shifted

Compound: COc1ccc(CN2CCN(CCOC(=O)c3cccnc3)CC2)c(OC)c1OC.Cl.Cl.Cl [289-MBA-15-A]
- Retention Time 5.6 (CV-8972 peak) ([1]; 2 mg/mL pH 6 (Form B), 1 hrs, measured pH 6.9): 95.1
- Retention Time 5.6 (CV-8972 peak) ([1]; 2 mg/mL pH 6 (Form B), 4 hrs, measured pH 6.8): 92.45
- Retention Time 5.6 (CV-8972 peak) ([1]; 2 mg/mL pH 6 (Form B), 6 hrs, measured pH 6.8): 90.65
- Retention Time 5.6 (CV-8972 peak) ([1]; 2 mg/mL pH 6 (Form B), 22 hrs, measured pH 6.7): 89.15
- Retention Time 5.6 (CV-8972 peak) ([1]; 2 mg/mL pH 7 (Form B), 1 hrs, measured pH 6.6): 95.46
- Retention Time 5.6 (CV-8972 peak) ([1]; 2 mg/mL pH 7 (Form B), 4 hrs, measured pH 6.5): 93.92
- Retention Time 5.6 (CV-8972 peak) ([1]; 10 mg/mL pH 6 (Form B), 1 hrs, measured pH 6.1): 94.81
- Retention Time 5.6 (CV-8972 peak) ([1]; 10 mg/mL pH 6 (Form B), 4 hrs, measured pH 6): 94.69
- Retention Time 5.6 (CV-8972 peak) ([1]; 10 mg/mL pH 6 (Form B), 6 hrs, measured pH 5.9): 94.39
- Retention Time 5.6 (CV-8972 peak) ([1]; 10 mg/mL pH 6 (Form B), 22 hrs, measured pH 5.9): 93.93
- Retention Time 5.6 (CV-8972 peak) ([1]; 10 mg/mL pH 7 (Form B), 1 hrs, measured pH 7.4): 86.18
- Retention Time 5.6 (CV-8972 peak) ([1]; 10 mg/mL pH 7 (Form B), 4 hrs, measured pH 7.4): 82.36
- Retention Time 5.6 (CV-8972 peak) ([1]; 10 mg/mL pH 7 (Form B), 6 hrs, measured pH 7.3): 79.37
